From patent US20210379210A1, “RADIOLIGANDS FOR IMAGING THE LPA1 RECEPTOR” (BRISTOL-MYERS SQUIBB COMPANY, priority 2018, published 2021)
Several values for one entry are separate records, joined by “and”; a condition that tells them apart may be missing. Identical values can stand only once.

Assays:
[1] = tested on: LPA1; test: In-vivo PET imaging in cynomolgus monkeys, lung SUV and % displacement; parameters: species or system cynomolgus monkey; details: healthy cynomolgus monkeys, listed as [^18F]-(1S,3S)-3-(6-(5-((((4-(fluoro)butyl)(methyl)carbamoyl)oxy)methyl)-1-meth))
Experimental: [^18F]-(1S,3S)-3-((6-(5-((((4-(fluoro)butyl)(methyl)carbamoyl)oxy)methyl)-1-methyl-1H-1,2,3-triazol-4-yl)-2-methylpyridin-3-yl)oxy)cyclohexane-1-carboxylic acid was tested as an LPA1 PET radioligand to validate the target engagement of LPA1 antagonist used in normal healthy cynomolgus monkeys and to support future clinical use of this agent as a PET radioligand. In this experiment, the specific binding to LPA1, PET imaging in normal healthy cynomolgus monkeys (n=3) was performed. PET images were acquired at baseline and again at after oral administration of an LPA1 antagonist (3, 10, and 30 mg/kg) or vehicle solution (0.5% Methocel A4M: 0.1% Tween 80 (Polysorbate 80): 99.4% Water) only. The oral dosing time of LPA1 antagonist or vehicle was 3 hours prior to [^18F]-labeled antagonist injection. Cynomolgus monkeys on study were fasted beginning the morning of the imaging day. Veterinary Scientists induced initial anesthesia pre-op cocktail of 0.02 mg/kg Atropine, and 5 mg/kg Telazol, 0.1 mg/kg Hydromorphone IM. […] Vital signs were continuously monitored throughout the imaging study. […] After returning to a conscious state, the monkey was transferred to an isolation room with food and water until the radioactivity was decayed to background levels. […]

[2] = Free fraction (free of protein binding) of the PET radioligand; assay type: in vitro ADME; details: read-out: free fractions, free of protein binding

average SUV at baseline for individual animals ([1]; lung, mean of baseline scans per animal): 0.398 and 0.321 and 0.391 | fraction unbound [2]: 0.05 to 0.11
SMILES: Cc1nc(-c2nnn(C)c2COC(=O)N(C)CCCC[18F])ccc1O[C@H]1CCC[C@H](C(=O)O)C1 [Example 16]
SUV in Lung (60-90 min) ([1]; individual baseline scans): 0.307 and 0.428 and 0.333 and 0.273 and 0.356 and 0.379 and 0.403 and 0.459
